Measured values from ChEMBL document CHEMBL3997846, “Synthesis and activity of nucleoside-based antiprotozoan compounds” (Bioorg Med Chem, 2017).

What was measured:
[1] = test system: Trypanosoma brucei rhodesiense; test: Antitrypanosomal activity against bloodstream forms of Trypanosoma brucei rhodesiense STIB900 trypomastigotes after 72 hrs by alamar blue assay; format: functional; conditions: STIB900, 72 h
L6 = test: Cytotoxicity against rat L6 cells assessed as growth inhibition after 72 hrs by alamar blue assay; format: cell-based; conditions: L6, 72 h
[2] = Selectivity index, ratio of IC50 for rat L6 cells to IC50 for bloodstream forms of Trypanosoma brucei rhodesiense STIB900 trypomastigotes; format: toxicity; conditions: read-out: Ratio IC50
Trypanosoma cruzi = test: Antitrypanosomal activity against Trypanosoma cruzi Tulahuen strain C2C4 amastigote forms harboring LacZ infected in rat L6 cells after 96 hrs by CPRG/Nonidet reagent based photometric method; format: functional, cell-based; conditions: Tulahuen strain C2C4, L6, 96 h
[3] = Selectivity index, ratio of IC50 for rat L6 cells to IC50 for Trypanosoma cruzi Tulahuen strain C2C4 amastigote forms harboring LacZ infected in rat L6 cells; format: toxicity, cell-based; conditions: read-out: Ratio IC50
Leishmania donovani = test: Antileishmanial activity against Leishmania donovani MHOM/SD/62/ISCL2D axenic amastigotes after 72 hrs by alamar blue assay; format: functional
[4] = Selectivity index, ratio of IC50 for rat L6 cells to IC50 for Leishmania donovani MHOM/SD/62/ISCL2D axenic amastigotes; format: toxicity; conditions: read-out: Ratio IC50
Plasmodium falciparum = test: Antiplasmodial activity against chloroquine resistant Plasmodium falciparum K1 erythrocytic stage assessed as reduction in [3H]hypoxanthine incorporation after 48 hrs by liquid scintillation counting assay; format: functional
[5] = Selectivity index, ratio of IC50 for rat L6 cells to IC50 for chloroquine resistant Plasmodium falciparum K1 erythrocytic stage; format: toxicity; conditions: read-out: Ratio IC50

CC(=O)O[C@@H]1[C@H](OC(C)=O)[C@@H](CI)O[C@H]1n1cnc2c(N)nc(F)nc21
IC50 [1]: 15 µM
IC50 (L6): 6.3 µM
selectivity ratio [2]: 0.4
IC50 (Trypanosoma cruzi): 14 µM
selectivity ratio [3]: 0.4
IC50 (Leishmania donovani): 9.2 µM
selectivity ratio [4]: 0.7
IC50 (Plasmodium falciparum): 1.1 µM
selectivity ratio [5]: 6

CC(=O)NC[C@H]1O[C@@H](n2cnc3c(N)nc(F)nc32)[C@H](OC(C)=O)[C@@H]1OC(C)=O
IC50 [1]: 115 µM
IC50 (L6): 138 µM
selectivity ratio [2]: 1
IC50 (Trypanosoma cruzi): 106 µM
selectivity ratio [3]: 1
IC50 (Leishmania donovani): > 240 µM
selectivity ratio [4]: < 0.6
IC50 (Plasmodium falciparum): 37 µM
selectivity ratio [5]: 4

CC(=O)O[C@@H]1[C@H](OC(C)=O)[C@@H](CN2C(=O)c3ccccc3C2=O)O[C@H]1n1cnc2c(N)nc(F)nc21
IC50 [1]: 160 µM
IC50 (L6): 129 µM
selectivity ratio [2]: 0.8
IC50 (Trypanosoma cruzi): 103 µM
selectivity ratio [3]: 1
IC50 (Leishmania donovani): > 200 µM
selectivity ratio [4]: < 0.6
IC50 (Plasmodium falciparum): 45 µM
selectivity ratio [5]: 3

CNc1nc(NC)c2ncn([C@@H]3O[C@H](C)[C@@H](O)[C@H]3O)c2n1
IC50 [1]: > 340 µM
IC50 (L6): 187 µM
selectivity ratio [2]: < 0.6
IC50 (Trypanosoma cruzi): 109 µM
selectivity ratio [3]: 2
IC50 (Leishmania donovani): > 340 µM
selectivity ratio [4]: < 0.6
IC50 (Plasmodium falciparum): > 170 µM
selectivity ratio [5]: < 1

COc1nc(I)nc2c1ncn2[C@@H]1O[C@H](C)[C@@H](O)[C@H]1O
IC50 [1]: 108 µM
IC50 (L6): 158 µM
selectivity ratio [2]: 2
IC50 (Trypanosoma cruzi): 113 µM
selectivity ratio [3]: 1
IC50 (Leishmania donovani): 126 µM
selectivity ratio [4]: 1
IC50 (Plasmodium falciparum): 65 µM
selectivity ratio [5]: 2

CNc1nc(N)nc2c1ncn2[C@@H]1O[C@H](C)[C@@H](O)[C@H]1O
IC50 [1]: 127 µM
IC50 (L6): 211 µM
selectivity ratio [2]: 2
IC50 (Trypanosoma cruzi): 15 µM
selectivity ratio [3]: 14
IC50 (Leishmania donovani): 326 µM
selectivity ratio [4]: 0.6
IC50 (Plasmodium falciparum): 19 µM
selectivity ratio [5]: 11

CNc1nc(Cl)c2ncn([C@@H]3O[C@H](C)[C@@H](O)[C@H]3O)c2n1
IC50 [1]: 230 µM
IC50 (L6): 175 µM
selectivity ratio [2]: 0.8
IC50 (Trypanosoma cruzi): 35 µM
selectivity ratio [3]: 5
IC50 (Leishmania donovani): > 335 µM
selectivity ratio [4]: < 0.5
IC50 (Plasmodium falciparum): 150 µM
selectivity ratio [5]: 1

CC(=O)NC[C@H]1O[C@@H](n2cnc3c(N)nc(F)nc32)[C@H](O)[C@@H]1O
IC50 [1]: > 300 µM
IC50 (L6): 182 µM
selectivity ratio [2]: < 0.6
IC50 (Trypanosoma cruzi): 178 µM
selectivity ratio [3]: 1
IC50 (Leishmania donovani): 117 µM
selectivity ratio [4]: 2
IC50 (Plasmodium falciparum): 19 µM
selectivity ratio [5]: 10

CC(=O)O[C@@H]1[C@H](OC(C)=O)[C@@H](CS(C)(=O)=O)O[C@H]1n1cnc2c(N)nc(Cl)nc21
IC50 [1]: 14 µM
IC50 (L6): 114 µM
selectivity ratio [2]: 8
IC50 (Trypanosoma cruzi): > 200 µM
selectivity ratio [3]: < 0.6
IC50 (Leishmania donovani): > 200 µM
selectivity ratio [4]: < 0.6
IC50 (Plasmodium falciparum): 10 µM
selectivity ratio [5]: 11

CC(=O)O[C@@H]1[C@H](OC(C)=O)[C@@H](CN2C(=O)c3ccccc3C2=O)O[C@H]1n1cnc2c(N)nc(Cl)nc21
IC50 [1]: 161 µM
IC50 (L6): 144 µM
selectivity ratio [2]: 0.9
IC50 (Trypanosoma cruzi): 101 µM
selectivity ratio [3]: 1
IC50 (Leishmania donovani): 139 µM
selectivity ratio [4]: 1
IC50 (Plasmodium falciparum): 23 µM
selectivity ratio [5]: 6

CC(=O)O[C@@H]1[C@H](OC(C)=O)[C@@H](CN=[N+]=[N-])O[C@H]1n1cnc2c(N)nc(Cl)nc21
IC50 [1]: 64 µM
IC50 (L6): 141 µM
selectivity ratio [2]: 2
IC50 (Trypanosoma cruzi): 93 µM
selectivity ratio [3]: 2
IC50 (Leishmania donovani): 114 µM
selectivity ratio [4]: 1
IC50 (Plasmodium falciparum): 13 µM
selectivity ratio [5]: 11

Nc1nc(Cl)c2ccn([C@@H]3O[C@H](CO)[C@@H](O)[C@H]3O)c2n1
IC50 [1]: 0.13 µM
IC50 (L6): 163 µM
selectivity ratio [2]: 1250
IC50 (Trypanosoma cruzi): 3.4 µM
selectivity ratio [3]: 48
IC50 (Leishmania donovani): 0.06 µM
selectivity ratio [4]: 2720
IC50 (Plasmodium falciparum): 68 µM
selectivity ratio [5]: 2

Nc1nc2c(ccn2[C@@H]2O[C@H](CO)[C@@H](O)[C@H]2O)c(=S)[nH]1
IC50 [1]: 61 µM
IC50 (L6): 185 µM
selectivity ratio [2]: 3
IC50 (Trypanosoma cruzi): 71 µM
selectivity ratio [3]: 3
IC50 (Leishmania donovani): > 335 µM
selectivity ratio [4]: < 0.6
IC50 (Plasmodium falciparum): > 168 µM
selectivity ratio [5]: < 1

CS(=O)(=O)C[C@H]1O[C@@H](n2cnc3c(N)nc(Cl)nc32)[C@H](O)[C@@H]1O
IC50 [1]: 126 µM
IC50 (L6): 156 µM
selectivity ratio [2]: 1
IC50 (Trypanosoma cruzi): 156 µM
selectivity ratio [3]: 1
IC50 (Leishmania donovani): > 275 µM
selectivity ratio [4]: < 0.6
IC50 (Plasmodium falciparum): 25 µM
selectivity ratio [5]: 6

CSC[C@H]1O[C@@H](n2cnc3c(N)nc(F)nc32)[C@H](OC(C)=O)[C@@H]1OC(C)=O
IC50 [1]: 26 µM
IC50 (L6): 15 µM
selectivity ratio [2]: 0.6
IC50 (Trypanosoma cruzi): 15 µM
selectivity ratio [3]: 1
IC50 (Leishmania donovani): 18 µM
selectivity ratio [4]: 0.8
IC50 (Plasmodium falciparum): 2.8 µM
selectivity ratio [5]: 5

[N-]=[N+]=NC[C@H]1O[C@@H](n2cnc3c(N)nc(Cl)nc32)[C@H](O)[C@@H]1O
IC50 [1]: 56 µM
IC50 (L6): 155 µM
selectivity ratio [2]: 3
IC50 (Trypanosoma cruzi): 76 µM
selectivity ratio [3]: 2
IC50 (Leishmania donovani): 193 µM
selectivity ratio [4]: 0.8
IC50 (Plasmodium falciparum): 9.8 µM
selectivity ratio [5]: 16

[N-]=[N+]=NC[C@H]1O[C@@H](n2cnc3c(N)nc(F)nc32)[C@H](O)[C@@H]1O
IC50 [1]: 22 µM
IC50 (L6): 3.1 µM
selectivity ratio [2]: 0.1
IC50 (Trypanosoma cruzi): 13 µM
selectivity ratio [3]: 0.2
IC50 (Leishmania donovani): 1 µM
selectivity ratio [4]: 3
IC50 (Plasmodium falciparum): 0.89 µM
selectivity ratio [5]: 3

CNc1nc(N)nc2c1ncn2[C@@H]1O[C@H](CSC)[C@@H](O)[C@H]1O
IC50 [1]: 290 µM
IC50 (L6): 165 µM
selectivity ratio [2]: 0.6
IC50 (Trypanosoma cruzi): 22 µM
selectivity ratio [3]: 8
IC50 (Leishmania donovani): > 318 µM
selectivity ratio [4]: 0.5
IC50 (Plasmodium falciparum): 29 µM
selectivity ratio [5]: 6
